Patent US20240108738A1, “BICYCLIC PEPTIDE LIGANDS SPECIFIC FOR NK CELLS” (Bicycle Tx Limited, priority 2021, published 2024)
pKd: −log10 of the molar value. Numbered stars: 1 amine (or outer) side, 2 acyl side, 3 side chain; on linkers, the order of the positions; unused ones are H or OH. Bridge positions count the residues as written; N and C are the ends. Square brackets hold non-standard residues; d marks the D form. Peptide text beside a SMILES is read from it. TATA = O=C(CC[*:1])N1CN(C(=O)CC[*:2])CN(C(=O)CC[*:3])C1; Dopa = N[C@@H](Cc1ccc(O)c(O)c1)C(=O)O; dCha = N[C@H](CC1CCCCC1)C(=O)O; Cba = N[C@@H](CC1CCC1)C(=O)O; Pen = CC(C)(S)[C@H](N)C(=O)O; dNle = CCCC[C@@H](N)C(=O)O; dNva = CCC[C@@H](N)C(=O)O

Target: T1, Fc-tagged human NKp46 (Homo sapiens, UniProt O76036)
T1 construct: purchased ACROBiosystems NC1-H5257
T1 sequence (O76036 22-304): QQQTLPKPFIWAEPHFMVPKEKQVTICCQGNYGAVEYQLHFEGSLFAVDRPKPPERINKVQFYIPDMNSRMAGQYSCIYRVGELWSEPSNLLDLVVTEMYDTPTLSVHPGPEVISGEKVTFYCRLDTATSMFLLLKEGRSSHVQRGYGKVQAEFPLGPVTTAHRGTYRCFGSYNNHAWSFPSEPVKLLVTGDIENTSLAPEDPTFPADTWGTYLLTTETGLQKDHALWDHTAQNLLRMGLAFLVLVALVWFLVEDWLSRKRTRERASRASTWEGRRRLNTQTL
Assay: NKp46 SPR assay (Method 1 and/or Method 2)
Format: binding
Details: SPR Method 1 and/or Method 2, Table 3B
Procedure: SPR experiments were performed to determine ka (M^−1s^−1), kd (s^−1), KD (nM) values (where measurable) of various bicyclic peptides to immobilised NKp46.
For analysis of peptide binding to NKp46, a Biacore 3000 instrument was used with a Cytiva Streptavidin chip. Capture of the protein (recombinant human NKp46-Fc fusion biotinylated via Avi-tag) was carried out at 25° C. with HBS-N (10 mM HEPES, 0.15 M NaCl, pH 7.4) as the running buffer and biotinylated NKp46 was captured to a level of 400-800 RU using a dilution of protein to 0.2 μM in buffer. Buffer was then changed to PBS/0.05% Tween 20 and a dilution series of the peptides was prepared in this buffer with a final DMSO concentration of 0.5% with a top peptide concentration of 100 nM-5000 nM and 6 further 2 or 3-fold dilutions. The SPR analysis was run at 25° C. and a flow rate of 50 μl/min with 60 seconds association and 200-400 seconds dissociation time. Data were corrected for DMSO excluded volume effects. All data were double-referenced for blank injections and reference surface using standard processing procedures and data processing and kinetic fitting were performed using Scrubber software, version 2.0c (BioLogic Software). Data were fitted using simple 1:1 binding model allowing for mass transport effects where appropriate.
Peptides were tested against Fc-tagged human NKp46 (ACROBiosystems, cat no. NC1-H5257).
For analysis of peptide binding, a Biacore 8k+ instrument was used with a CM5 chip (Cytiva). All experiments were carried out at 25° C. Anti-human IgG (Fc) antibody (Cytiva) was immobilized on all flow cells by standard amine coupling chemistry. The running buffer was HBS-N(Cytiva, 10 mM HEPES, 0.15 M NaCl, pH 7.4) and the flow rate was 10 μL/min. The carboxymethyl dextran surface was activated with a 1:1 ratio of 0.4 M 1-ethyl-3-(3-dimethylaminopropyl) carbodiimide hydrochloride (EDC)/0.1 M N-hydroxy succinimide (NHS) (Cytiva) for 420s. […] Residual activated groups were blocked with a 420 s injection of 1 M ethanolamine (pH 8.5). The final surface density was 3000-5000 RU. Fc-tagged human NKp46 was diluted to 0.1 μM in HBS-N and was captured on flow cell 2 only of the sensor chip at a flow rate of 10 μL/min to 500-1000 RU. The buffer was then changed to PBS-P+(Cytiva) supplemented with 2% DMSO. […] The flow rate was 50 μL/min with 60 s association and 400 s dissociation. Data were corrected for DMSO volume exclusion effects. All data were double-referenced against blank injections and reference surface response using standard processing procedures. Data processing and kinetic fitting was performed using Biacore Insight Evaluation Software with Extended Screening and Characterization Extension (Cytiva). Data were fitted using steady state affinity 1:1 binding model to determine KD. Data were fitted using kinetic 1:1 binding model to determine kinetic constants where appropriate.

CSCC[C@@H]1NC(=O)[C@@H]2CSCCC(=O)N3CN(CN(C3)C(=O)CCSC[C@@H](C(=O)N[C@@H](C)C(N)=O)NC(=O)[C@H](C(C)C)NC(=O)[C@H](CCCCN)NC(=O)CNC(=O)[C@H]([C@@H](C)O)NC(=O)[C@H](CCC(=O)O)NC1=O)C(=O)CCSC[C@H](NC(=O)[C@H](C)N)C(=O)N[C@@H](CC(N)=O)C(=O)N[C@@H](CC(C)C)C(=O)N[C@@H](CCC(N)=O)C(=O)N[C@@H](C)C(=O)N1CCC[C@H]1C(=O)N2 [BCY18316, A-(SEQ ID NO: 78)-A] (H-ACNLQAPCMETGKVCA-NH2; linker 2-8-15 via TATA; C-terminus assumed) and CSCC[C@@H]1NC(=O)[C@@H]2CSCCC(=O)N3CN(CN(C3)C(=O)CCSC[C@@H](C(=O)N[C@@H](C)C(N)=O)NC(=O)[C@H](C(C)C)NC(=O)[C@H](CCCCN)NC(=O)CNC(=O)[C@H]([C@@H](C)O)NC(=O)[C@H](Cc3ccc(O)cc3)NC1=O)C(=O)CCSC[C@H](NC(=O)[C@H](C)N)C(=O)N[C@@H](CC(N)=O)C(=O)N[C@@H](CC(C)C)C(=O)N[C@@H](CCC(N)=O)C(=O)N[C@@H](C)C(=O)N1CCC[C@H]1C(=O)N2 [BCY18318, A-(SEQ ID NO: 80)-A] (H-ACNLQAPCMYTGKVCA-NH2; linker 2-8-15 via TATA) are within 0.2 log units of each other in pKd: 5.82 for the first, 5.72 for the second.

First: CC(=O)N[C@H]1CSCCC(=O)N2CN3CN(C2)C(=O)CCSC[C@H](NC(=O)[C@H](CC(C)C)NC(=O)[C@H](Cc2ccc(O)cc2)NC(=O)[C@H](CC(=O)O)NC(=O)[C@@H]2CCCN2C(=O)[C@H](CC2CCC2)NC(=O)[C@H](CCO)NC1=O)C(=O)N[C@H](C)C(=O)N[C@@H](CC(=O)O)C(=O)N[C@@H](CCC(=O)O)C(=O)N[C@@H](Cc1ccc(O)cc1)C(=O)N[C@H](C(N)=O)CSCCC3=O [BCY18434, Ac-(SEQ ID NO: 137)]
Second: CC(=O)N[C@H]1CSCCC(=O)N2CN3CN(C2)C(=O)CCSC[C@H](C(N)=O)NC(=O)[C@H](Cc2ccc(O)cc2)NC(=O)[C@H](CCC(=O)O)NC(=O)[C@H](CC(=O)O)NC(=O)[C@@H](C)NC(=O)[C@H](CSCCC3=O)NC(=O)[C@H](CC(C)C)NC(=O)[C@H](Cc2ccc(O)cc2)NC(=O)[C@H](CC(=O)O)NC(=O)[C@@H]2CCCN2C(=O)[C@H](CC2CCC2)NC(=O)[C@H](Cc2ccc(O)cc2)NC1=O [BCY19692, Ac-(SEQ ID NO: 156)] (Ac-CY[Cba]PDYLC[dA]DEY[dC]-NH2; linker 1-8-13 via TATA)
The pKd of the first is higher: 7.36 for the first, under 6.30 for the second.

First: CCC[C@H]1NC(=O)[C@@H]2CSCCC(=O)N3CN(CN(C3)C(=O)CCSC[C@H](NC(C)=O)C(=O)N[C@@H](Cc3ccc(O)cc3)C(=O)N[C@@H](CC3CCC3)C(=O)N3CCC[C@H]3C(=O)N[C@@H](CC(=O)O)C(=O)N[C@@H](Cc3ccc(O)cc3)C(=O)N[C@@H](CC(C)C)C(=O)N2)C(=O)CCSC[C@@H](C(N)=O)NC(=O)[C@H](Cc2ccc(O)cc2)NC(=O)[C@H](CCC(=O)O)NC(=O)[C@H](CC(=O)O)NC1=O [BCY18444, Ac-(SEQ ID NO: 145)] (Ac-CY[Cba]PDYLC[dNva]DEYC-NH2; linker 1-8-13 via TATA)
Second: CCCC[C@H]1NC(=O)[C@@H]2CSCCC(=O)N3CN(CN(C3)C(=O)CCSC[C@H](NC(C)=O)C(=O)N[C@@H](Cc3ccc(O)cc3)C(=O)N[C@@H](CC3CCC3)C(=O)N3CCC[C@H]3C(=O)N[C@@H](CC(=O)O)C(=O)N[C@@H](Cc3ccc(O)cc3)C(=O)N[C@@H](CC(C)C)C(=O)N2)C(=O)CCSC[C@@H](C(N)=O)NC(=O)[C@H](Cc2ccc(O)cc2)NC(=O)[C@H](CCC(=O)O)NC(=O)[C@H](CC(=O)O)NC1=O [BCY19685, Ac-(SEQ ID NO: 149)] (Ac-CY[Cba]PDYLC[dNle]DEYC-NH2; linker 1-8-13 via TATA)
The pKd of the first is 0.41 log units higher: 8.41 for the first, 8.00 for the second.

Compared with CC(=O)N[C@H]1CSCCC(=O)N2CN3CN(C2)C(=O)CCSC[C@H](NC(=O)[C@H](CC(C)C)NC(=O)[C@H](Cc2ccc(O)cc2)NC(=O)[C@H](CC(=O)O)NC(=O)[C@@H]2CCCN2C(=O)[C@H](CC2CCC2)NC(=O)[C@H](Cc2ccc(O)cc2)NC1=O)C(=O)N[C@H](CC1CCCCC1)C(=O)N[C@@H](CC(=O)O)C(=O)N[C@@H](CCC(=O)O)C(=O)N[C@@H](Cc1ccc(O)cc1)C(=O)N[C@H](C(N)=O)CSCCC3=O [BCY19683, Ac-(SEQ ID NO: 147)] (Ac-CY[Cba]PDYLC[dCha]DEYC-NH2; linker 1-8-13 via TATA; C-terminus assumed), CC(=O)N[C@@H]1CSCCC(=O)N2CN3CN(C2)C(=O)CCSC[C@H](NC(=O)[C@H](CC(C)C)NC(=O)[C@H](Cc2ccc(O)cc2)NC(=O)[C@H](CC(=O)O)NC(=O)[C@@H]2CCCN2C(=O)[C@H](CC2CCC2)NC(=O)[C@H](Cc2ccc(O)cc2)NC1=O)C(=O)N[C@H](C)C(=O)N[C@@H](CC(=O)O)C(=O)N[C@@H](CCC(=O)O)C(=O)N[C@@H](Cc1ccc(O)cc1)C(=O)N[C@H](C(N)=O)CSCCC3=O [BCY19693, Ac-(SEQ ID NO: 157)] (Ac-[dC]Y[Cba]PDYLC[dA]DEYC-NH2; linker 1-8-13 via TATA; C-terminus assumed) is 0.23 log units lower in pKd: 8.00 for the first, 7.77 for the second.

Going from CC(=O)N[C@H]1CSCCC(=O)N2CN3CN(C2)C(=O)CCSC[C@H](NC(=O)[C@H](CC(C)C)NC(=O)[C@H](Cc2ccc(O)c(O)c2)NC(=O)[C@H](CC(=O)O)NC(=O)[C@@H]2CCCN2C(=O)[C@H](CC2CCC2)NC(=O)[C@H](Cc2ccc(O)cc2)NC1=O)C(=O)N[C@H](C)C(=O)N[C@@H](CC(=O)O)C(=O)N[C@@H](CCC(=O)O)C(=O)N[C@@H](Cc1ccc(O)cc1)C(=O)N[C@H](C(N)=O)CSCCC3=O [BCY19686, Ac-(SEQ ID NO: 150)] (Ac-CY[Cba]PD[Dopa]LC[dA]DEYC-NH2; linker 1-8-13 via TATA; C-terminus assumed) to CC(=O)N[C@@H]1C(=O)N[C@@H](Cc2ccc(O)cc2)C(=O)N[C@@H](CC2CCC2)C(=O)N2CCC[C@H]2C(=O)N[C@@H](CC(=O)O)C(=O)N[C@@H](Cc2ccc(O)cc2)C(=O)N[C@@H](CC(C)C)C(=O)N[C@H]2CSCCC(=O)N3CN(CN(C3)C(=O)CCSC1(C)C)C(=O)CCSC[C@@H](C(N)=O)NC(=O)[C@H](Cc1ccc(O)cc1)NC(=O)[C@H](CCC(=O)O)NC(=O)[C@H](CC(=O)O)NC(=O)[C@@H](C)NC2=O [BCY19689, Ac-(SEQ ID NO: 153)] (Ac-[Pen]Y[Cba]PDYLC[dA]DEYC-NH2; linker 1-8-13 via TATA; C-terminus assumed), the pKd rises from 7.36 to 7.80 (0.44 log units). The second binds more tightly here.

CC(=O)N[C@H]1CSCCC(=O)N2CN3CN(C2)C(=O)CCSC(C)(C)[C@@H](C(N)=O)NC(=O)[C@H](Cc2ccc(O)cc2)NC(=O)[C@H](CCC(=O)O)NC(=O)[C@H](CC(=O)O)NC(=O)[C@@H](C)NC(=O)[C@H](CSCCC3=O)NC(=O)[C@H](CC(C)C)NC(=O)[C@H](Cc2ccc(O)cc2)NC(=O)[C@H](CC(=O)O)NC(=O)[C@@H]2CCCN2C(=O)[C@H](CC2CCC2)NC(=O)[C@H](Cc2ccc(O)cc2)NC1=O [BCY19691, Ac-(SEQ ID NO: 155)] (Ac-CY[Cba]PDYLC[dA]DEY[Pen]-NH2; linker 1-8-13 via TATA) and CSCC[C@@H]1NC(=O)[C@@H]2CSCCC(=O)N3CN(CN(C3)C(=O)CCSC[C@H](N)C(=O)N[C@@H](CC(N)=O)C(=O)N[C@@H](CC(C)C)C(=O)N[C@@H](CCC(N)=O)C(=O)N[C@@H](C)C(=O)N3CCC[C@H]3C(=O)N2)C(=O)CCSC[C@@H](C(=O)N[C@@H](C)C(N)=O)NC(=O)[C@H](C(C)C)NC(=O)[C@H](CCCCN)NC(=O)CNC(=O)[C@H]([C@@H](C)O)NC(=O)[C@H](CC(C)C)NC1=O [BCY19694, (SEQ ID NO: 4)-A] (H-CNLQAPCMLTGKVCA-NH2; linker 1-7-14 via TATA) cannot be ordered by pKd: under 6.30 for the first, 5.60 for the second.
